“Also recorded” adds a separate entry of the source.
How the values were obtained:
Akt = test: Downstream Akt activation in mouse brain (p-Akt immunoblotting, p-Akt 473 ELISA); assay type: in vivo; conditions: 2.5 mg/kg/day oral, 3 weeks
Protocol: PathScan Phospho-Akt1 (Ser473) Sandwich ELISA kit was purchased from Cell Signaling (Cat. #7160). 100 μl sample in sample diluent (supplied in the kit) was added to each well and incubated overnight at 4° C. After 4× wash with 200 ul wash buffer (supplied in the kit), 100 ul/well detection antibody was added and incubated for 1 hour at 37° C. After 4× wash, 100 μl of HRP-linked secondary antibody (supplied in the kit) was added and incubated for 30 minutes at 37° C. After a final wash, 100 μl of TMB substrate was added to each well and incubated for 10 minutes at 37° C. The reaction was stopped by adding 100 μl/well stop solution. Record the values of each well using microplate reader at 450 nm and 650 nm. The optical density was determined by the subtraction of the reading at 650 nm from the reading s at 450 nm.
Male C57BL/6 mice aged of two months were administrated orally with 4′-DMA-7,8-DHF derivatives at a single dose of 1 mg/kg for 4 h. The control mice were injected with saline. The mice were sacrificed and brains were homogenated and ultracentrafuged. The supernatant (40 μg) was employed for SDS-PAGE and immunoblotting analysis with indicated antibodies, respectively. Male C57BL/6 mice aged of two months were administrated orally with compound (i) or (m) at the dose of 5 mg/kg/day each and compound o or p at the dose of 2.5 mg/kg/day each for 21 days. BrdU (100 mg/kg) was i. p. injected two hours before the TrkB agonist treated animals were sacrificed and the hippocampal section lysates were analyzed by immunoblotting with p-TrkB and total TrkB antibodies, p-AKT ELISA.

C57BL/6J mice = test: Locomotor activity assay; assay type: in vivo, mouse; conditions: 2.5 mg/kg oral, 3 weeks
Protocol: The above drug-treated mice were subjected locomotor activity at day 22. […] Data are presented as mean±SEM.
Locomotor activity was assessed using an automated system (San Diego Instruments, La Jolla, Calif., USA) with photobeams that recorded ambulations (consecutive beam breaks). Drug-treated mice were placed in the locomotor chambers, and their activity was recorded for 2 h with 30 min interval.

HepG2 cells = test: In vitro cytotoxicity assay with HepG2 cells; assay type: cell-based; conditions: micronucleus and comet assays
Protocol: HepG2 cells were treated with various concentrations of flavonoids for 24 h. The drug-treated cells were subjected to trypan blue exclusive assay. Data are presented as mean±SEM. (n=3, ***P<0.0001 vs vehicle).
In vitro and in vivo ADMET (ADME plus toxicity) of certain compounds were examined. […] Micronuclei formation is an important endpoint in genotoxicity study. […] Next, a Comet assay was performed with 100 μM drug-treated HepG2 cells. As a positive control, etoposide, a topoisomerase inhibitor, which causes DNA strand breaks was used.

[1] = Human liver microsomal stability assay; assay type: in vitro ADME; conditions: human liver microsomes, 1 h incubation
From the text: To explore these compounds' in vitro ADMET profiles, we conducted numerous in vitro assays.

CYP1A2 = molecular target: T1, CYP1A2 (Homo sapiens, UniProt P05177); test: CYP screen inhibition; assay type: in vitro ADME
T1 sequence (P05177 1-516): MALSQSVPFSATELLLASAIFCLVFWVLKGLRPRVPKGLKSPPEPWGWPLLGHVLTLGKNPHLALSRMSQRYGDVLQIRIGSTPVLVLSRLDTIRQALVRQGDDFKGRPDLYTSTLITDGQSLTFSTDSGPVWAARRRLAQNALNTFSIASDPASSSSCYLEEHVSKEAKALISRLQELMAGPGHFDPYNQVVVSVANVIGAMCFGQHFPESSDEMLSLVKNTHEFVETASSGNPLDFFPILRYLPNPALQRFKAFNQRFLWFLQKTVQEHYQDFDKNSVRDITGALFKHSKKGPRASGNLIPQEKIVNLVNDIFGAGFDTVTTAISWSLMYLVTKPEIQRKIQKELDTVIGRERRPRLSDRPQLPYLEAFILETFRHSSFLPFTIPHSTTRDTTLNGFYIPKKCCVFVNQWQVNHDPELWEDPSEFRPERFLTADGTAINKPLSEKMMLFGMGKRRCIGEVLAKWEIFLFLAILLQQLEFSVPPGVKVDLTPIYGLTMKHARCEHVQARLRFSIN
Protocol: (§1) At 30 μM, the inhibition patterns contained similar trends. To test the possible cardiovascular toxicity, hERG inhibition triggered by compound o was examined.

hERG = hERG (Homo sapiens, UniProt Q12809); test: hERG inhibition assay
Chain of hERG (Q12809 whole entry): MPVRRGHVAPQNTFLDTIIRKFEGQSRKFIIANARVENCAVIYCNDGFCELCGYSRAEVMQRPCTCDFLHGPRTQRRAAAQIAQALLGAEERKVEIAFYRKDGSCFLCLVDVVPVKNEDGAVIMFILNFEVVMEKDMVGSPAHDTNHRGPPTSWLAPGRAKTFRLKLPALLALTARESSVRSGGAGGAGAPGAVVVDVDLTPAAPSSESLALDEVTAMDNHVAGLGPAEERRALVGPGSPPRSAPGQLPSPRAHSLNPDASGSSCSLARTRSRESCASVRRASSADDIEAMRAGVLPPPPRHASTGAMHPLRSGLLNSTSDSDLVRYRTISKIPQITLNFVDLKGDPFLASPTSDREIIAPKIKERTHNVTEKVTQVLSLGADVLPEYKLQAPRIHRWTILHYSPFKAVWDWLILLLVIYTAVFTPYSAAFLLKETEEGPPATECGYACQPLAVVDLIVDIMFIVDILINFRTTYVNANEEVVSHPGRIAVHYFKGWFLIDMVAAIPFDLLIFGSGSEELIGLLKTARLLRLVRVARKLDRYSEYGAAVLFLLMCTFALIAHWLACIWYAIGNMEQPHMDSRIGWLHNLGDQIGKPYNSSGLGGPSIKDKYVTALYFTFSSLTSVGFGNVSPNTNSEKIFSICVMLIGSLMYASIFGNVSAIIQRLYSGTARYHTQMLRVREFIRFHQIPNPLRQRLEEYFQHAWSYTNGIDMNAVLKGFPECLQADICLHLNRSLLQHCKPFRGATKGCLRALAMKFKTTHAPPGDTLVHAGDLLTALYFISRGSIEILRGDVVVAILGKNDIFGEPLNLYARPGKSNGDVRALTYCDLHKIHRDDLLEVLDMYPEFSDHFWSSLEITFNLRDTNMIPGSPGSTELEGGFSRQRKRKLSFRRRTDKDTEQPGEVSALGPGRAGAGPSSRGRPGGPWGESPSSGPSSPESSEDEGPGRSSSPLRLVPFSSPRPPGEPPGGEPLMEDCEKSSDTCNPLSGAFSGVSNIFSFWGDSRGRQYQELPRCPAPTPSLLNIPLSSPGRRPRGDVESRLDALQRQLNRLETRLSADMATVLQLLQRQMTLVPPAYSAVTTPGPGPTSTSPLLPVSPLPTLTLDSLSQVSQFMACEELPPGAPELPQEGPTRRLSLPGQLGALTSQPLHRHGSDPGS
Protocol: as §1

For `Cc1nc2ccc3c(=O)cc(-c4ccc(N5CCCC5)cc4)oc3c2[nH]1` [compound o, 2-methyl-8-(4-(pyrrolidin-1-yl)phenyl)chromeno[7,8-d]imidazol-6(1H)-one], the “Akt activation (quantitative p-Akt ELISA)” value (Akt) was “notably activated Akt”, the locomotor activity (C57BL/6J mice) was “neither compound o nor p altered the motion activity” and the “cytotoxicity or genotoxicity (overall conclusion)” value (HepG2 cells) was “negligible cytotoxicity or genotoxicity”. For the same molecule, the “remaining unchanged after incubation” value [1] was 25.4%, the inhibition at 3 µM (CYP1A2) was ~27.3% and the hERG inhibition (hERG) was “suboptimal; also recorded: did not possess any concentration-dependent inhibition activity of hERG”.

Source: US10596145B2, “Heterocyclic flavone derivatives, compositions, and methods related thereto” (Emory University, priority 2012, dated 2020)
